Experimental data from ChEMBL document CHEMBL4041492 (Eur J Med Chem, 2017).

Legend:
[1] = Antagonist activity at adenosine receptor A2a in [3H]adenine-labeled guinea pig cerebral cortical slices assessed as inhibition of 2-chloroadenosine-stimulated [3H]-cAMP accumulation; parameters: species or system Cavia porcellus
Adenosine receptor A1 [2] = biological target: T1, Adenosine receptor A1 (Rattus norvegicus, UniProt P25099); assay: Displacement of [3H]DPCPX from adenosine receptor A1 in rat brain membrane; assay type: cell membranes
T1 sequence (P25099 whole entry): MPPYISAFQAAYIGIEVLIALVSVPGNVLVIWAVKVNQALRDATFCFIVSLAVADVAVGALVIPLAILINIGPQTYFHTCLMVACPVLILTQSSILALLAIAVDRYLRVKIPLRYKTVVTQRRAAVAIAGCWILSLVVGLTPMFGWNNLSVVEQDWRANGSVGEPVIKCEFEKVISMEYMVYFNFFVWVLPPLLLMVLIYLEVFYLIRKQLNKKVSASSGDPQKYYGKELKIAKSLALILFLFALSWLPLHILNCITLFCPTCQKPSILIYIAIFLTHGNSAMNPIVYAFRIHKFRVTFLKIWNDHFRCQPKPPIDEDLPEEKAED

Adenosine receptor A2a = Adenosine receptor A2a (Rattus norvegicus, UniProt P30543); assay: Displacement of [3H]NECA from adenosine receptor A2a in rat striatial membrane; assay type: cell membranes
Chain of Adenosine receptor A2a (P30543 whole entry): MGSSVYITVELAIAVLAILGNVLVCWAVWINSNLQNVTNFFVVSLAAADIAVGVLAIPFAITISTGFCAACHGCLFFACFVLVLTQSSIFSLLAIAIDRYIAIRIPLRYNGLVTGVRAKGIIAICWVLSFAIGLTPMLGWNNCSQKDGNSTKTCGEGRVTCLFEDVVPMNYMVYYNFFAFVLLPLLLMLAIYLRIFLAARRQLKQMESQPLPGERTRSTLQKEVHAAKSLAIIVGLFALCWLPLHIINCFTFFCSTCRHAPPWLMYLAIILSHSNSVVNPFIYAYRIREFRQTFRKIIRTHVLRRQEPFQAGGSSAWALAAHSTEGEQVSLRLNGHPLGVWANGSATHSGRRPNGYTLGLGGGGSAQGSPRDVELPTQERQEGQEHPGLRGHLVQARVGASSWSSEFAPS

Rattus norvegicus [3] = organism: Rattus norvegicus; assay: Selectivity index, ratio of Ki for adenosine receptor A1 in rat brain membrane to Ki for adenosine receptor A2a in rat striatal membrane; assay type: cell membranes
Rattus norvegicus [4] = organism: Rattus norvegicus; assay: Selectivity index, ratio of Ki for adenosine receptor A2a in rat striatal membrane to Ki for adenosine receptor A1 in rat brain membrane; assay type: cell membranes
Adenosine receptor A1 [5] = biological target: T1, Adenosine receptor A1; assay: Displacement of [3H]DPCPX from adenosine receptor A1 in rat brain membrane in presence of GTP by GTP shift assay; assay type: cell membranes
[6] = biological target: T2, Adenosine receptor A1 (Rattus norvegicus) (UniProt P25099); assay: Ratio of Ki for adenosine receptor A1 in rat brain membrane in presence of GTP to Ki for adenosine receptor A1 in rat brain membrane in absence of GTP; assay type: cell membranes
T2 sequence (whole entry): T1 sequence (P25099 whole entry)

| Ki [1] [µM] | Ki (Adenosine receptor A1 [2]) [µM] | Ki (Adenosine receptor A2a) [µM] | Ratio Ki (Rattus norvegicus [3]) | Ratio Ki (Rattus norvegicus [4]) | Ki (Adenosine receptor A1 [5]) [µM] | Ratio Ki [6] | SMILES |
| --- | --- | --- | --- | --- | --- | --- | --- |
| 50 | – | – | – | – | – | – | Cn1c(=O)c2c(ncn2C)n(C)c1=O [CAFFEINE] |
| – | 7.6 | 1.33 | 5.7 | 0.2 | – | – | Cn1c(=O)c2c(nc(COc3ccc(Cl)cc3)n2C)n(C)c1=O |
| – | 1.52 | 4.3 | 0.4 | 2.8 | 1.93 | 1.2 | Cn1c(=O)c2c(nc(OCc3ccccc3)n2C)n(C)c1=O |
| – | 7.95 | 4.5 | 1.8 | 0.6 | – | – | Cn1c(=O)c2c(nc(NCc3ccccc3)n2C)n(C)c1=O |
| – | 90 | 51.4 | 1.8 | 0.6 | – | – | Cn1c(=O)c2c(nc(SCc3ccc(Cl)cc3)n2C)n(C)c1=O |
| – | – | – | 1.3 | 0.8 | 4.01 | 1.3 | Cn1c(=O)c2c(nc(COc3ccccc3)n2C)n(C)c1=O |
| – | 4.85 | 3.33 | 1.5 | 0.8 | – | – | Cn1c(=O)c2c(nc(CSc3ccccc3)n2C)n(C)c1=O |
| – | – | – | 1.2 | 0.9 | – | – | Cn1c(=O)c2c(nc(CCc3ccccc3)n2C)n(C)c1=O |
| – | 4.32 | 4.64 | 0.9 | 1.1 | – | – | Cn1c(=O)c2c(nc(SCc3ccccc3)n2C)n(C)c1=O |
| – | 20.8 | 1.5 | 13.9 | 0.1 | – | – | Cn1c(=O)c2c(nc(CSc3ccc(Cl)cc3)n2C)n(C)c1=O |
| – | 17.4 | 3.31 | 5.3 | 0.2 | – | – | Cn1c(=O)c2c(nc(OCc3ccc(Cl)cc3)n2C)n(C)c1=O |
